Values quoted from earlier work, collected in patent US10328004B2, “Sunscreen cosmetic” (SHISEIDO COMPANY, LTD., priority 2015, dated 2019).

Conditions: UVB wavelength range

CCCCC(CC)COC(=O)c1ccc(Nc2nc(Nc3ccc(C(=O)OCC(CC)CCCC)cc3)nc(Nc3ccc(C(=O)OCC(CC)CCCC)cc3)n2)cc1 (stereo not shown) [Ethylhexyl triazone]
maximum absorption wavelength: 312 nm
